The results in this text go back to ChEMBL document CHEMBL1126396 (Bioorg Med Chem Lett, 1992).

The term IC50 denotes the concentration that inhibits the measured activity by half. The low end stands for greater potency in that assay, the high end for weaker potency in that assay.

Experiment [1] concerns the target Somatostatin receptor. The experiment in a line: Inhibitory activity against Somatostatin receptor in rat cortex membrane using 125 I-Tyrs-octreotide as radioligand. The experiment is classed as cell membranes.
The target of experiment [2] is Somatostatin receptor. Nature of the experiment: Radioligand binding studies on rat cortex membranes using 125 I-Tyrs-octreotide as ligand was determined.

On to `NCCCCCOCC1OC(OCCc2c[nH]c3ccccc23)C(OCc2ccccc2)C1OCc1ccccc1` (configuration not stated), for which, at Somatostatin receptor [1], the “Log Ki” value is reported as -4.73. The molecule also had a half-inhibitory concentration (IC50) at Somatostatin receptor [2] of 23 µM.
